Experimental data as given in patent US8669232B2, “Flavonol compounds, a bioactive extract/fraction from Ulmus wallichiana and its compounds for prevention for treatment of osteo-health related disorders” (Council of Scientific & Industrial Research, priority 2008, dated 2014).

Tests used:
[1] = system: ovariectomized Sprague Dawley rats; experiment: Uterine weight in Ovx rats (estrogen agonistic effect); type: in vivo; details: 1.0&5.0 mg/kg body weight, 90 days, uterine weight comparable with Ovx + vehicle
Description: Ethanolic extracts of […] at the doses of 500-& 750 mg/kg body weight were given daily by oral route to Sprague Dawley (180-200 g) rats after bilateral ovariectomy (Ovx). This is the most widely used animal model for osteopenia (bone loss) mimicking human condition of post-menopausal bone loss. The extract was given in gum acacia (vehicle). Sham operated rats and Ovx rats were used as controls and given only gum acacia. Each group consisted of 10 rats and the groups were as follows: sham intact, Ovx, Ovx+500 mg/kg extract and Ovx+750 mg/kg extract. Treatment started 24 h after the surgery and continued for 90 days. After 90 days, the rats were first acclimatized and then kept in metabolic cages with no food but only water for 24 h to collect urine samples. After 24 h, rats were returned to the cages with food and water ad libitum with oral administration of the extract as before foe an additional 24 hour. Rats were then euthanized and autopsied to collect blood, bones (tibia, femur, L1-L4 vertebrae) and uterus. […] at 1 to 10 mg/kg body weight were given daily by oral route to Sprague Dawley (180-200 g) rats after bilateral ovariectomy (Ovx). This is the most widely used animal model for osteopenia (bone loss) mimicking human condition of post-menopausal bone loss. The extract was given in gum acacia (vehicle). […]

[2] = system: Bone marrow cells (BMCs); experiment: In vitro mineralization from mouse bone marrow; type: cell-based, balb/c mice; details: 1 nM and 100 nM, 21 days
From the text: Adult balb/c mice were used in this study. Bone marrow cells (BMCs) were harvested from the femurs and tibias of the animals, as described elsewhere (Maniatopoulos et al. Cell Tissue Res 1988:254:317-30.; Ishaug et al., J Biomed Mater Res 1997; 36:17-28.). Briefly, bones were aseptically excised from the hind limbs of the mice following ether euthanasia. The soft tissue was removed, and the proximal end of the femur and distal end of the tibia were clipped off using sterile scissors, a hole was created in the knee joint end of each bone with an needle, and the marrow was flushed from the shaft with control medium (CM) which consisted of α-MEM supplemented with 10% fetal calf serum, 100 U/ml penicillin, 100 U/ml streptomycin (Sigma, Chemical Co., St. Louis, Mo., USA). The cells were suspended in this medium, and the cell suspensions from all bones were combined in a centrifuge tube. The suspension was spun down at 800 rpm for 5 min. Cells were counted by using a haemocytometer. The supernatant was aspirated, and the pellet was re-suspended in fresh CM and then seeded into 12-well plates. 200000 cells/well were cultured in 12-well plates and in a humidified atmosphere, with 5% CO2, at 37° C. in the same medium supplemented with 10 mM-β-glycerophosphate, 50 μg/ml L-ascorbic acid and 10^−8M dexamethasone with different concentration of the test compound. This medium was replaced every other day (John et al. Trends. Biomater. Artif. Organs 2002:16(1):28-33.; Connolly. Clin Orthop 1995:313: 8-18.; Gebhart and Lane. Acta Orthop Belg 1991:57(2):130-43.; Gurpinar et al. J Biomater Appl 2003; 18(1):25-33; Lan and Wang, Blood Substitutes. Biotechnol 2003; 31(1):59-68.). Treatments K012, K058, K068 and K0100 at 1 nM and 100 nM concentration were given for 21 days and after completion of the treatment samples were rinsed with PBS followed by fixation (4% HCHO for […]). Samples were then rinsed with nanopure water and stained for 10 min with 40 mM AR-S, pH 4.2, at room temperature. […] Photomicrographs of the stained wells were taken. Subsequently, alizarin red-S stain was extracted using 10% (w/v) CPC in […] sodium phosphate, pH 7.0, for […] at room temperature, and the resulting solutions were read on a Microplate reader with a test wavelength of 540 nm against a reference wavelength of 620 nm.

[3] = system: calvarial osteoblasts; experiment: Alkaline phosphatase activity assay in calvarial osteoblasts; type: cell-based, neonatal Sprague-Dawley rats
Description: Neonatal rat calvarial cell cultures are prepared as described previously (Chattopadhyay et al., Endocrinology 145:3451-62, 2004) using slight modification. Briefly, for calvarial osteoblast cultures, frontal and parietal bones from neonatal Sprague-Dawley rats (1-3 day old) were digested in 0.1% collagenase/0.1% dispase in α-MEM to obtain 5 sequential digests. The second through fifth digests are combined and grown to confluence at 37° C. and 5% CO2 in air in α-MEM, supplemented with 10% fetal bovine serum (FBS), 2 mM glutamine, 100 U/ml penicillin-streptomycin, non-essential amino acid solution and sodium pyruvate.
For alkaline phosphatase (ALP) assay, osteoblasts were plated in 96-well (2000 cells/well) plates in regular growth medium. Twenty-four hours later, when the cells formed a confluent monolayer, medium was replaced with α-MEM medium supplemented with 10% FBS, 10 mM β-glycerophosphate and 50 μg/ml ascorbic acid. Treatment was given with varying concentration of the test compound K012, K058, K068 and K100 at 1 nM and 100 nM concentration. Forty-eight hours after induction, ALP activity of the osteoblasts was determined as described by Akiyama et al (Exp Cell Res 235:362-369, 1997) with slight modifications. Briefly, cells were washed once with PBS and ALP activity was measured by adding ALP buffer (1 M diethanolamine, 0.5 mM MgCl2, 1 mg/ml PNPP, pH 9.0), incubating in 37° C., and absorbance (405 nm) was measured using a microplate spectrophotometer. Statistical significance was determined by paired two-tailed Student's t-tests.

Row | Structure (SMILES) | estrogen agonistic action at the uterine level (uterine weight) [1] | mineralization of bone marrow osteoblasts (alizarin red staining) [2] | osteoblast differentiation (summary of in vitro effects) [3]
1 | O=c1c(O)c(-c2ccc(O)c(O)c2)oc2cc(O)c(C3O[C@H](CO)[C@@H](O)[C@H](O)[C@H]3O)c(O)c12 (stereo partly drawn) [K012, 6-Glucopyranosyl-3,3′,4′,5,7-pentahydroxyflavone] | no estrogen agonistic action | stimulated | promoted
2 | O=C1c2c(cc(O)c([C@@H]3OC(CO)[C@@H](O)[C@H](O)C3O)c2O)O[C@@H](c2ccc(O)c(O)c2)[C@@H]1O (stereo partly drawn) [K058, (2S,3S)-(+)-3′,4′,5,7-tetrahydroxydihydroflavonol-6-C-β-D-glucopyranoside] | no estrogen agonistic action | stimulated | promoted
